Measured values: patent publication US6172097A, “Spiro imidazoline compounds” (Adir et Compagnie, priority 1998, dated 2001)

What was measured:
[1] = target: T1, noradrenaline reuptake sites (Rattus norvegicus, UniProt Q63380); experiment: Affinity for noradrenaline reuptake sites in the rat, competition with [3H]-nisoxetine on frontal cortex membranes; assay type: binding; settings: 2 nM [3H]-nisoxetine, 4 hours at 4° C, pH 7.4
T1 construct: The membranes are prepared from the frontal cortex of the rat; from tissue; host or cells: rat frontal cortex membranes
Experimental: Determination of the Affinity For Noradrenaline Reuptake Sites in the Rat
The affinity was determined by competition experiments with [^3 H]-nisoxetine. The membranes are prepared from the frontal cortex of the rat and are incubated in triplicate with 2 nM [^3 H]-nisoxetine and the product to be tested in a final volume of 0.5 ml, for 4 hours at 4° C. The incubation buffer contains 50 mM TRIS-HCl (pH 7.4), 120 mM NaCl and 5 mM KCl. The non-specific binding is determined using 10 μM desipramine.
(§1) At the end of incubation, the incubation medium is filtered through WHATMAN GF/B filters impregnated with 0.1% of polyethyleneimine, and washed three times with 5 ml of cooled buffer. The radioactivity retained on the filters is determined by liquid scintillation counting. The binding isotherms are analysed by non-linear regression.

α2-adrenergic receptors = target: T2, α2-adrenergic receptors (Rattus norvegicus, UniProt P22909); experiment: Affinity for α2-adrenergic receptors in the rat, competition with [3H]-RX 821,002 on cerebral cortex membranes; assay type: binding; settings: 0.4 nM [3H]-RX 821,002, 60 minutes at 22° C, pH 7.5
T2 construct: The membranes are prepared from the cerebral cortex of the rat; from tissue; host or cells: rat cerebral cortex membranes
T2 sequence (P22909 1-465): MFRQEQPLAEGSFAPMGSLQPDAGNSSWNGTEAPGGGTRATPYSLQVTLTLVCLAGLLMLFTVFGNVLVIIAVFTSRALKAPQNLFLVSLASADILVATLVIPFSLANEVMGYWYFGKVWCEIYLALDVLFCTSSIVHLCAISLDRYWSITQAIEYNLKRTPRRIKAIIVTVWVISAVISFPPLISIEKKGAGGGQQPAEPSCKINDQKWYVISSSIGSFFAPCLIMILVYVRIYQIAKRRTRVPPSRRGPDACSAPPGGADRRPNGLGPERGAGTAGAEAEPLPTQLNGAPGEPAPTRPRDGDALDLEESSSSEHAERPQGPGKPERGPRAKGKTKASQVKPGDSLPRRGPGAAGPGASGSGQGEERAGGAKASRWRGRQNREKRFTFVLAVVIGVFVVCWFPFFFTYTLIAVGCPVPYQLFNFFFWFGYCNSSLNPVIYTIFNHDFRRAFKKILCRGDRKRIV
Experimental: Determination of the Affinity For α2 -Adrenergic Receptors in the Rat
The affinity was determined by competition experiments with [^3 H]-RX 821,002. The membranes are prepared from the cerebral cortex of the rat and are incubated in triplicate with 0.4 nM [^3 H]-RX 821,002 and the product to be tested in a final volume of 1.0 ml, for 60 minutes at 22° C. The incubation buffer contains […] TRIS-HCl (pH 7.5), 1 mM EDTA and 100 μM GppNHp. The non-specific binding is determined using 10 μM phentolamine.
as §1

serotonin reuptake sites = target: T3, serotonin reuptake sites (Rattus norvegicus, UniProt P31652); experiment: Affinity for serotonin reuptake sites in the rat, competition with [3H]-paroxetine on frontal cortex membranes; assay type: binding; settings: 0.25 nM [3H]-paroxetine, 2 hours at 25° C, pH 7.4
T3 construct: The membranes are prepared from the frontal cortex of the rat; from tissue; host or cells: rat frontal cortex membranes
Experimental: Determination of the Affinity For Serotonin Reuptake Sites in the Rat
The affinity was determined by competition experiments with [^3 H]-paroxetine. The membranes are prepared from the frontal cortex of the rat and are incubated in triplicate with 0.25 nM [^3 H]-paroxetine and the cold ligand in a final volume of 0.4 ml, for 2 hours at 25° C. The incubation buffer contains 50 mM TRIS-HCl (pH 7.4), 120 mM NaCl and 5 mM KCl. The non-specific binding is determined using 10 μM citalopram.
as §1

monoamine reuptake = settings: described in U.S. Pat. No. 5,017,584; cited from earlier work
α2-adrenergic = settings: described in U.S. Pat. No. 5,017,584; cited from earlier work

T3 sequence (P31652 whole entry): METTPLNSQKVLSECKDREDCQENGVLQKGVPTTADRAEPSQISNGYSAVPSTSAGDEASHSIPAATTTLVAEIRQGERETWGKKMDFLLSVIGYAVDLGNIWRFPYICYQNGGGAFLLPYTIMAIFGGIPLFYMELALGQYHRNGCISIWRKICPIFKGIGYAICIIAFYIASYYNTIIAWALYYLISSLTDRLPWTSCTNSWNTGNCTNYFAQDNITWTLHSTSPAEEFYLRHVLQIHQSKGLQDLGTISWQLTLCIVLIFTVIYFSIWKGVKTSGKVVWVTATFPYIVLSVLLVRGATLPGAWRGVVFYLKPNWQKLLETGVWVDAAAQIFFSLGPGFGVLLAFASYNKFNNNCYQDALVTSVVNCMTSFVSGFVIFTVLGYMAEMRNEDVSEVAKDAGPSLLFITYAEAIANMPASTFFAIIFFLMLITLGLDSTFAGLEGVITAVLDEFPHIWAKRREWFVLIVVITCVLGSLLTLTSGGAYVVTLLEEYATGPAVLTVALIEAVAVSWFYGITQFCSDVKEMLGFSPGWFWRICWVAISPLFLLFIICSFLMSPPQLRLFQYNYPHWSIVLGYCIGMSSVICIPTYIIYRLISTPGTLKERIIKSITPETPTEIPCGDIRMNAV
T1 sequence (Q63380 1-617): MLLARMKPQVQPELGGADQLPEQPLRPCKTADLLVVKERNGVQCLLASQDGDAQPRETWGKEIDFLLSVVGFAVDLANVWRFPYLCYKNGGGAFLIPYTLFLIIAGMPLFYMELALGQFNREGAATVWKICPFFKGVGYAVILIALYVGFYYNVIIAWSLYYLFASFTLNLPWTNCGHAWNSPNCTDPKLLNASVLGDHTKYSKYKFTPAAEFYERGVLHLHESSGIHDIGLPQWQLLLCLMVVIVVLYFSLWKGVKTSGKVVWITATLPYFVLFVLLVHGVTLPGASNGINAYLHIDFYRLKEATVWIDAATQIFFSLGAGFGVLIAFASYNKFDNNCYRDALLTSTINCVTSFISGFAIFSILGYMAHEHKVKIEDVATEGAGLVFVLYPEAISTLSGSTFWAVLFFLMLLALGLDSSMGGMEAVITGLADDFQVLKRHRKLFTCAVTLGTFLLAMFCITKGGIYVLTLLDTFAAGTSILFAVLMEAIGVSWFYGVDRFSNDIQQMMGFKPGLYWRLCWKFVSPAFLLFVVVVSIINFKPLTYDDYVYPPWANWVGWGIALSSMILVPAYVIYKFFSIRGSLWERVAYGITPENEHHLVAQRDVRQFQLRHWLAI

SMILES	Ki [1]	Ki (α2-adrenergic receptors)	Ki (serotonin reuptake sites)	monoamine reuptake-blocking activity (in words) (monoamine reuptake)	α2-adrenergic antagonist activity (in words) (α2-adrenergic)
C1=NC[C@@]2(CC[C@@H]3Cc4ccccc4C[C@H]3C2)N1 (relative stereo) [Example 1, Spiro[(1,3-diazacyclopent-1-ene)-5: 2'(S)-(trans-1',2',3',4',4'a(R),9',9'a(S),10'-octahydroanthracene)]fumarate and spiro [(1,3-diazacyclopent-1-ene)-5: 2'(R)-(trans-1',2',3',4',4'a(S),9',9'a(R),10'-octahydroanthracene)]fumarate]	200 nM	10 nM	15.8 nM	–	–
C1=C(CC2=NCCN2)CCc2ccccc21 [napamezole]	–	–	–	monoamine reuptake-blocking activity	α2-adrenergic antagonist activity
